Structures can show the parent of a compound that is named as a salt.
The compounds below were run against full-length USP7 (Homo sapiens (Human), UniProt Q93009) (assay: Enzymatic assay to determine IC50 of USP7 inhibitors (Ubiquitin-Rhodamine 110 cleavage)). Conditions: 0.5 nM USP7, 0.5 μM Ubiquitin-Rhodamine 110, 45 min at 37° C.
Assay type: biochemical
Description: For the inhibitors disclosed herein, their potency was measured using the following method.
A 45 μl reaction volume containing full-length USP7 (0.5 nM) in 50 mM HEPES pH 7.5, 150 mM NaCl, 1 mM DTT, 1 mg/ml BSA and 0.05% Tween20 was assembled in wells of 96 well half area black flat bottom plates. Test compounds were first dissolved to 25 mM stocks in DMSO and subsequently introduced to enzyme 15 min after USP7 incubation with DTT at room temperature. The enzymatic reaction was started by adding 0.5 μM Ubiquitin-Rhodamine 110 (final concentration) and allowed to proceed for 45 min at 37° C., 250 RPM shaking before Rhodamine fluorescence (485 nm excitation/520 nm emission) was measured using Tecan Spark M10 plate reader.

full-length USP7, sequence (Q93009 whole entry): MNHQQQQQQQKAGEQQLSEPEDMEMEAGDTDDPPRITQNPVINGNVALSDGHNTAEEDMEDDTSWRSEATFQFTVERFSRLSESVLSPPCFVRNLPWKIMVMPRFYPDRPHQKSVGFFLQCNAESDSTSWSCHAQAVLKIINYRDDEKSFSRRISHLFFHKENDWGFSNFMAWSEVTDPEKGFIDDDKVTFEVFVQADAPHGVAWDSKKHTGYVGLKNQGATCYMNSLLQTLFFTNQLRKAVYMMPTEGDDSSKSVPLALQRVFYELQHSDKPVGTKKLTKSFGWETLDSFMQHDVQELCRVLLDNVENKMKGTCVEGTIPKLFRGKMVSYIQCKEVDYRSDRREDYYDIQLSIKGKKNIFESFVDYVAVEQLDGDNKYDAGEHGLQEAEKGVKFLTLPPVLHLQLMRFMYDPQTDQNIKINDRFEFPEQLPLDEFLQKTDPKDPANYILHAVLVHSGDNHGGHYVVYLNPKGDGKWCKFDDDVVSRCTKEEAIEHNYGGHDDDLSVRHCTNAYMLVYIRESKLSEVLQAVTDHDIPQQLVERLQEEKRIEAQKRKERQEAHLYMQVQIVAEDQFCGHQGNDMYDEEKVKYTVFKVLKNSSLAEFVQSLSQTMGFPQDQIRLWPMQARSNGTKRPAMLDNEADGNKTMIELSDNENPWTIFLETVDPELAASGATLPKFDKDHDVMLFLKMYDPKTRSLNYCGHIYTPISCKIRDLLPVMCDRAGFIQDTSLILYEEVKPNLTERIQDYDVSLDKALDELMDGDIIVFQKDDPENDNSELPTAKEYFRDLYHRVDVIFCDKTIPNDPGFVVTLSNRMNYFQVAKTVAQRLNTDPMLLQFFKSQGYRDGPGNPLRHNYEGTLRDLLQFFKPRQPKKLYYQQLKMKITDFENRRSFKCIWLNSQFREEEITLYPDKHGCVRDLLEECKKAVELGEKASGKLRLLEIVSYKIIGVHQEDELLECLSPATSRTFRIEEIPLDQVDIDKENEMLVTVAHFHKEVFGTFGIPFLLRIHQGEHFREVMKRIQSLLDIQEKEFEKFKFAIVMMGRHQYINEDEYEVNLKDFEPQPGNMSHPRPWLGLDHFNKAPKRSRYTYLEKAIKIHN

| SMILES | IC50 [nM] |
| --- | --- |
| Cc1cc(C(F)(F)F)nc(-c2ccnc3cc(CN4C(=O)C5C(C4=O)C5(C)C)sc23)c1C(=O)N1CCC(CNC(C)C)C1 (racemic) [Example 140, 3-((7-(3-(3-((isopropylamino)methyl)pyrrolidine-1-carbonyl)-4-methyl-6-(trifluoromethyl)pyridin-2-yl)thieno[3,2-b]pyridin-2-yl)methyl)-6,6-dimethyl-3-azabicyclo[3.1.0]hexane-2,4-dione trihydrochloride] | < 500 |
| CCN1CCN(C(=O)c2c(C)cc(C(F)(F)F)nc2-c2ccnc3cc(CN4C(=O)C5C(C4=O)C5(C)C)sc23)CC1 (stereo not shown) [Example 143, 3-((7-(3-(4-ethylpiperazine-1-carbonyl)-4-methyl-6-(trifluoromethyl)pyridin-2-yl)thieno[3,2-b]pyridin-2-yl)methyl)-6,6-dimethyl-3-azabicyclo[3.1.0]hexane-2,4-dione trihydrochloride] | < 500 |
| Cc1nc(C(F)(F)F)cc(-c2ccnc3cc(CN4C(=O)C5C(C4=O)C5(C)C)sc23)c1O[C@H]1CCCNC1 (stereo partly drawn) [Example 23, 6,6-dimethyl-3-((7-(2-methyl-3-(((S)-piperidin-3-yl)oxy)-6-(trifluoromethyl)pyridin-4-yl)thieno[3,2-b]pyridin-2-yl)methyl)-3-azabicyclo[3.1.0]hexane-2,4-dione 2,2,2-trifluoroacetate] | < 500 |
| Cc1cc(Cl)cc(-c2ccnc3cc(CN4C(=O)C5C(C4=O)C5(C)C)sc23)c1NC(=O)[C@H]1CCNC1 (stereo partly drawn) [Example 34, (3S)—N-(4-chloro-2-(2-((6,6-dimethyl-2,4-dioxo-3-azabicyclo[3.1.0]hexan-3-yl)methyl)thieno[3,2-b]pyridin-7-yl)-6-methylphenyl)pyrrolidine-3-carboxamide 2,2,2-trifluoroacetate] | < 500 |
| Cc1nc(C#N)cc(-c2ccnc3cc(CN4C(=O)C5C(C4=O)C5(C)C)sc23)c1C(=O)N1CCC(F)(F)C1 (stereo not shown) [Example 10, 5-(3,3-difluoropyrrolidine-1-carbonyl)-4-(2-((6,6-dimethyl-2,4-dioxo-3-azabicyclo[3.1.0]hexan-3-yl)methyl)thieno[3,2-b]pyridin-7-yl)-6-methylpicolinonitrile 2,2,2-trifluoroacetate] | 1000 to 10000 |
| Cc1cc(C(F)(F)F)nc(-c2ccnc3cc(CN4C(=O)C5C(C4=O)C5(C)C)sc23)c1NC1CCNC1 (stereo not shown) [Example 18, 6,6-dimethyl-3-((7-(4-methyl-3-(pyrrolidin-3-ylamino)-6-(trifluoromethyl)pyridin-2-yl)thieno[3,2-b]pyridin-2-yl)methyl)-3-azabicyclo[3.1.0]hexane-2,4-dione 2,2,2-trifluoroacetate] | < 500 |
| CNCC(=O)Nc1c(-c2ccnc3cc(CN4C(=O)C5C(C4=O)C5(C)C)sc23)cc(C(F)(F)F)nc1C (stereo not shown) [Example 60, N-(4-(2-((6,6-dimethyl-2,4-dioxo-3-azabicyclo[3.1.0]hexan-3-yl)methyl)thieno[3,2-b]pyridin-7-yl)-2-methyl-6-(trifluoromethyl)pyridin-3-yl)-2-(methylamino)acetamide 2,2,2-trifluoroacetate] | > 10000 |
| Cc1cc(C#N)nc(-c2ccnc3cc(CN4C(=O)C5C(C4=O)C5(C)C)sc23)c1OC1CCCNC1 (stereo not shown) [Example 1, 6-(2-((6,6-dimethyl-2,4-dioxo-3-azabicyclo[3.1.0]hexan-3-yl)methyl)thieno[3,2-b]pyridin-7-yl)-4-methyl-5-(piperidin-3-yloxy)picolinonitrile 2,2,2-trifluoroacetate] | < 500 |

Now from value to compound:

| IC50 [nM] | SMILES |
| --- | --- |
| < 500 | Cc1cc(C(F)(F)F)nc(-c2ccnc3cc(CN4C(=O)C5C(C4=O)C5(C)C)sc23)c1C(=O)N1CC[C@H](NC(C)C)C1 (stereo partly drawn) [Example 74, 3-((7-(3-((S)-3-(isopropylamino)pyrrolidine-1-carbonyl)-4-methyl-6-(trifluoromethyl)pyridin-2-yl)thieno[3,2-b]pyridin-2-yl)methyl)-6,6-dimethyl-3-azabicyclo[3.1.0]hexane-2,4-dione dihydrochloride] |
| 1000 to 10000 | Cc1nc(C(F)(F)F)cc(-c2ccnc3cc(CN4C(=O)C5C(C4=O)C5(C)C)sc23)c1NC(=O)C1CNC1 (stereo not shown) [Example 66, N-(4-(2-((6,6-dimethyl-2,4-dioxo-3-azabicyclo[3.1.0]hexan-3-yl)methyl)thieno[3,2-b]pyridin-7-yl)-2-methyl-6-(trifluoromethyl)pyridin-3-yl)azetidine-3-carboxamide 2,2,2-trifluoroacetate] |
| < 500 | Cc1cc(C(F)(F)F)nc(-c2ccnc3cc(CN4C(=O)C5C(C4=O)C5(C)C)sc23)c1C(=O)N1CCN(C)C[C@@H]1C (stereo partly drawn) [Example 79, 3-((7-(3-((S)-2,4-dimethylpiperazine-1-carbonyl)-4-methyl-6-(trifluoromethyl)pyridin-2-yl)thieno[3,2-b]pyridin-2-yl)methyl)-6,6-dimethyl-3-azabicyclo[3.1.0]hexane-2,4-dione hydrochloride] |
| < 500 | Cc1cc(Cl)nc(-c2ccnc3cc(CN4C(=O)C5C(C4=O)C5(C)C)sc23)c1NC1CC2(CNC2)C1 (stereo not shown) [Example 131, 3-((7-(3-((2-azaspiro[3.3]heptan-6-yl)amino)-6-chloro-4-methylpyridin-2-yl)thieno[3,2-b]pyridin-2-yl)methyl)-6,6-dimethyl-3-azabicyclo[3.1.0]hexane-2,4-dione hydrobromide] |
| < 500 | Cc1cc(C(F)(F)F)nc(-c2ccnc3cc(CN4C(=O)C5C(C4=O)C5(C)C)sc23)c1C(=O)N1C[C@@H](N)C2(CC2)C1 (stereo partly drawn) [Example 173, 3-((7-(3-((S)-7-amino-5-azaspiro[2.4]heptane-5-carbonyl)-4-methyl-6-(trifluoromethyl)pyridin-2-yl)thieno[3,2-b]pyridin-2-yl)methyl)-6,6-dimethyl-3-azabicyclo[3.1.0]hexane-2,4-dione hydrochloride] |
| < 500 | Cc1cc(C(F)(F)F)nc(-c2ccnc3cc(CN4C(=O)C5C(C4=O)C5(C)C)sc23)c1CN1CC[C@@H]2CNC[C@@H]21 (stereo partly drawn) [Example 159, 3-((7-(3-(((3aR,6aR)-hexahydropyrrolo[3,4-b]pyrrol-1(2H)-yl)methyl)-4-methyl-6-(trifluoromethyl)pyridin-2-yl)thieno[3,2-b]pyridin-2-yl)methyl)-6,6-dimethyl-3-azabicyclo[3.1.0]hexane-2,4-dione trihydrochloride] |
| 1000 to 10000 | Cc1nc(C(F)(F)F)cc(-c2ccnc3cc(CN4C(=O)C5C(C4=O)C5(C)C)sc23)c1CN1CC(F)(F)C1 (stereo not shown) [Example 103, 3-((7-(3-((3,3-difluoroazetidin-1-yl)methyl)-2-methyl-6-(trifluoromethyl)pyridin-4-yl)thieno[3,2-b]pyridin-2-yl)methyl)-6,6-dimethyl-3-azabicyclo[3.1.0]hexane-2,4-dione 2,2,2-trifluoroacetate] |

Same assay, conditions: at 1 μM of the test compound; given where IC50 not determined yet; read-out: percent value of inhibition of USP7 activity

| inhibition at 1 µM [%] | SMILES |
| --- | --- |
| 20 to 49 | Cc1nc(C#N)cc(-c2ccnc3cc(CN4C(=O)C5C(C4=O)C5(C)C)sc23)c1C(=O)NC1CNC1 (stereo not shown) [Example 16, N-(azetidin-3-yl)-6-cyano-4-(2-((6,6-dimethyl-2,4-dioxo-3-azabicyclo[3.1.0]hexan-3-yl)methyl)thieno[3,2-b]pyridin-7-yl)-2-methylnicotinamide hydrochloride] |
| 20 to 49 | Cc1cc(C(F)(F)F)nc(-c2ccnc3cc(CN4C(=O)C5C(C4=O)C5(C)C)sc23)c1CN1CCNCC1=O (stereo not shown) [Example 40, 6,6-dimethyl-3-((7-(4-methyl-3-((2-oxopiperazin-1-yl)methyl)-6-(trifluoromethyl)pyridin-2-yl)thieno[3,2-b]pyridin-2-yl)methyl)-3-azabicyclo[3.1.0]hexane-2,4-dione dihydrochloride] |
| > 70 | Cc1cc(C(F)(F)F)nc(-c2ccnc3cc(CN4C(=O)C5C(C4=O)C5(C)C)sc23)c1C(=O)N1C[C@@H](C)[C@H](N(C)C)C1 (stereo partly drawn) [Example 172, 3-((7-(3-((3S,4R)-3-(dimethylamino)-4-methylpyrrolidine-1-carbonyl)-4-methyl-6-(trifluoromethyl)pyridin-2-yl)thieno[3,2-b]pyridin-2-yl)methyl)-6,6-dimethyl-3-azabicyclo[3.1.0]hexane-2,4-dione hydrochloride] |

Same assay, conditions: read-out: percent value of inhibition of USP7 activity

| SMILES | inhibition at 1 µM [%] |
| --- | --- |
| Cc1ccnc(CC2CNCCO2)c1-c1ccnc2cc(CN3C(=O)C4C(C3=O)C4(C)C)sc12 (stereo not shown) [Example 93, 6,6-dimethyl-3-((7-(4-methyl-2-(morpholin-2-ylmethyl)pyridin-3-yl)thieno[3,2-b]pyridin-2-yl)methyl)-3-azabicyclo[3.1.0]hexane-2,4-dione 2,2,2-trifluoroacetate] | < 20 |
| Cc1nc(C#N)cc(-c2ccnc3cc(CN4C(=O)C5C(C4=O)C5(C)C)sc23)c1NC(=O)C1CCN1 (stereo not shown) [Example 27, N-(6-cyano-4-(2-((6,6-dimethyl-2,4-dioxo-3-azabicyclo[3.1.0]hexan-3-yl)methyl)thieno[3,2-b]pyridin-7-yl)-2-methylpyridin-3-yl)azetidine-2-carboxamide 2,2,2-trifluoroacetate] | < 20 |
| Cc1cc(C)c(NC(=O)C2CCNCC2)c(-c2ccnc3cc(CN4C(=O)C5C(C4=O)C5(C)C)sc23)n1 (stereo not shown) [Example 134, N-(2-(2-((6,6-dimethyl-2,4-dioxo-3-azabicyclo[3.1.0]hexan-3-yl)methyl)thieno[3,2-b]pyridin-7-yl)-4,6-dimethylpyridin-3-yl)piperidine-4-carboxamide 2,2,2-trifluoroacetate] | < 20 |
| CCc1nc(C(F)(F)F)cc(-c2ccnc3cc(CN4C(=O)C5C(C4=O)C5(C)C)sc23)c1NC(=O)C1CCNCC1 (stereo not shown) [Example 33, N-(4-(2-((6,6-dimethyl-2,4-dioxo-3-azabicyclo[3.1.0]hexan-3-yl)methyl)thieno[3,2-b]pyridin-7-yl)-2-ethyl-6-(trifluoromethyl)pyridin-3-yl)piperidine-4-carboxamide 2,2,2-trifluoroacetate] | < 20 |

From patent publication US12404279B2, “Deubiquitinase inhibitors and methods of use thereof” (Molecure S.A., priority 2021, dated 2025)
